From US8618179B2, “Composition comprising a pesticide and an alkoxylate of 2-propylheptylamine” (BASF SE, priority 2010, dated 2013)

Experiments:
[1] = Gelling upon addition of amine alkoxylate to glyphosate solution; format: physicochemical; conditions: addition at 20° C.
[2] = Storage stability of glyphosate formulation with amine alkoxylate; format: physicochemical; conditions: temperatures of from 5 to +55° C.
Text: Also, the formulation was rainfast.

[3] = test system: Ambrosia artemisiifolia (AMBEL); assay: Greenhouse test, imazamox SL formulation on Ambrosia; format: in vivo; conditions: scored after 14 days; 10 g of imazamox/ha and 400 g of amine alkoxylate/ha
Experimental: (§1) The herbicidal activity was evaluated by awarding scores to the treated plants in comparison to the untreated control plants (Table 2). The evaluation scale ranges from 0% to 100% activity. 100% activity means the complete death at least of those parts of the plant that are above ground. Conversely, 0% activity means that there were no differences between treated and untreated plants.
(§2) The application rate was 10 g of imazamox/ha and 400 g of amine alkoxylate/ha. For comparison, a tallow fatty amine ethoxylate with 12 ethylene oxide units was used (liquid, approximately 100% content, molar mass approximately 730 g/mol (calculated from OH number), available commercially as Lutensol® FA12K from BASF SE).

[4] = test system: winter oilseed rape (cultivar Remy); assay: Greenhouse test, glyphosate SL formulation on oilseed rape; format: in vivo; conditions: Table 2; 140 g of glyphosate/ha and 300 g of amine alkoxylate/ha
Experimental: A concentrated formulation comprising glyphosate isopropylammonium in solution in water and amine alkoxylate from Example 2 was diluted with deionized water and applied at a water application rate of 375 l/ha (140 g of glyphosate/ha and 300 g of amine alkoxylate/ha). The temperatures in the experimental period, which lasted for 3 to 4 weeks, were between 18-35° C. During this time, the experimental plants received optimum watering, with nutrients being supplied via the water used for watering. The herbicidal activity was evaluated by awarding scores to the treated plants in comparison to the untreated control plants (Table 2). […] Conversely, 0% activity means that there were no differences between treated and untreated plants. […] The application rate was 140 g of glyphosate/ha and 300 g of amine alkoxylate/ha.

[5] = test system: Daphnia magna; assay: Water toxicity on Daphnia magna, OECD Guideline 202 part 1; format: in vivo; conditions: 48 h
[6] = test system: Chenopodium album (CHEAL); assay: Greenhouse test, imazamox SL formulation on Chenopodium; format: in vivo; conditions: scored after 14 days; 10 g of imazamox/ha and 400 g of amine alkoxylate/ha
Experimental: as §1, §2

[7] = test system: Brachiarea multica; assay: Field trial, glyphosate SL formulation with amine alkoxylate against weed; format: in vivo; conditions: glyphosate-isopropylammonium SL spray solution with amine alkoxylate, visual estimate
Experimental: To this end, in each case 1.0 l of spray solution (see table 1) was sprayed per plot using a manual sprayer. 1.0 l of the spray solution contained 7.5 ml of an aqueous formulation of dissolved glyphosate-isopropyl-ammonium salt. To prepare this formulation, 100 ml of amine alkoxylate of example 2 were previously made up to 1.0 l with 46% strength glyphosate-isopropylammonium salt solution. Two, five and seven days after the application, the destruction of the weed was estimated visually in percent. Rain fell repeatedly in the days between application and assessment.

2-propylheptylamine ethoxylate [2-PHamine-7 EO]
Gelling upon addition to the glyphosate solution [1]: no gelling observed
Storage stability of the formulation [2]: storage-stable for at least two weeks
Activity [%] AMBEL [3]: 80%
Activity [%] after 14 days [4]: 75%
Activity [%] after 21 days [4]: 86%
EC50 [5]: 60 mg/L
Activity [%] CHEAL [6]: 93%
Proportion [%] of weed destroyed ([7]; 2 days after application): 40%
Proportion [%] of weed destroyed ([7]; 5 days after application): 87.5%
Proportion [%] of weed destroyed ([7]; 7 days after application): 90%
